Test results taken from patent publication US20250154163A1, “Pyrimidinone-Containing 17-Beta-Hydroxysteroid Dehydrogenase Type 13 Inhibitors” (ENANTA PHARMACEUTICALS, INC., priority 2023, published 2025).

Assays:
[1] = target: T1, Recombinant human 17β-HSD13 (Homo sapiens, UniProt Q7Z5P4); assay: 17β-HSD13 rapid-fire mass spectrometry assay (RF/MS assay); assay type: biochemical; conditions: inhibition of 17β-HSD13, RF/MS assay; HSD17B13 80 nM, LTB4 10 μM, NAD+ 0.5 mM, RT 3 h
T1 construct: host or cells: Sf9 insect cells
T1 sequence (Q7Z5P4 20-300): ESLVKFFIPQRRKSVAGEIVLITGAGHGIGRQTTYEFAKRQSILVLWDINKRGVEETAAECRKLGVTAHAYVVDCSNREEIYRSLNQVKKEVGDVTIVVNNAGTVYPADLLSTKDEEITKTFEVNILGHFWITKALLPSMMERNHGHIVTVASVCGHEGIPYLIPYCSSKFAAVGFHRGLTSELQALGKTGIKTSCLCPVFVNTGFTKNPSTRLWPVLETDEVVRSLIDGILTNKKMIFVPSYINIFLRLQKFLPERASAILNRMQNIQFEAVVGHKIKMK
Method in brief: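 Purified recombinant human 17β-HSD13 (sf9-expressed, 80 nM) incubated with compound (0–100 μM), 10 μM LTB4 and 0.5 mM NAD+ in 20 mM Tris pH 7.5, 0.005% BSA, 0.01% Tween-20, 3 h at RT. 12-oxo-LTB4 formation quantified by RapidFire MS/MS; percent conversion normalized to controls, IC50 from variable-slope fit, duplicates.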

[2] = system: C57BL/6J mice fed CDAA-HF; assay: Fibrotic markers in livers of mice fed choline deficient high fat (CDAA-HF) diet; assay type: in vivo, mouse; conditions: 20, 60 and 200 mg/kg oral gavage daily, final week of 4 weeks CDAA-HF, *p<0.05 vs vehicle
Method: The choline deficient amino acid defined diet (CDAA) is a well-characterized model of […] associated liver inflammation and fibrosis. The CDAA-HF mouse model is commonly used to preclinically evaluate potential therapeutic targets for non-alcoholic steatohepatitis (NASH). To investigate the effect of Compound 26 (Example 26; 20, 60, and 200 mg/kg, oral gavage, daily) on fibrotic gene and protein parameters, 10 week-old male C57BL/6J mice were fed CDAA-HF (choline deficient, L-amino acid defined, high fat diet; A16092201) for 4 weeks, with Compound 26 treatment only during the final week of the study. On the last day of the study, mice were euthanized by CO2 asphyxiation for tissue collection, and blood was collected by cardiac puncture. Livers were rapidly removed and frozen in liquid nitrogen for downstream mRNA and protein isolation. […] Statistical analysis was performed with One Way ANOVA. *p<0.05 vs vehicle treated (FIG. 1). Col1a1=Collagen; TGFB2=transforming growth factor beta 2. All procedures performed on animals were in accordance with regulations and established guidelines and were reviewed and approved by an Institutional Animal Care and Use Committee or through an ethical review process.

| IC50 [1] | Structure (SMILES) | liver collagen (Col1a1) mRNA ([2]; FIG. 1a) | liver TGFB2 (fibrotic cytokine) ([2]; FIG. 1b) | liver fibronectin (fibroblast activation marker) ([2]; FIG. 1c) |
| --- | --- | --- | --- | --- |
| < 100 nM | COc1ccc(-c2nc3sc4c(O)c(Cl)ccc4c3c(=O)n2Cc2cnco2)c(C2CC2)c1 [Example 26, 7-chloro-2-(2-cyclopropyl-4-methoxyphenyl)-8-hydroxy-3-(oxazol-5-ylmethyl)benzo[4,5]thieno[2,3-d]pyrimidin-4(3H)-one] | significantly decreases | significantly decreases | significantly decreases |
| < 100 nM | CS(=O)(=O)c1ccc(-c2nc3sc4c(O)c(Cl)ccc4c3c(=O)n2Cc2cnc(C(F)(F)F)nc2)c(C2CC2)c1 [Example 64, 7-chloro-2-(2-cyclopropyl-4-(methylsulfonyl)phenyl)-8-hydroxy-3-((2-(trifluoromethyl)pyrimidin-5-yl)methyl)benzo[4,5]thieno[2,3-d]pyrimidin-4(3H)-one] | – | – | – |
